Reference: the NIST ThermoML archive (doi:10.1016/j.fluid.2010.08.004)

Experiment: mn = molality of the nth substance listed, in mol/kg
Settings: 101.3 kPa, Liquid; for speed of sound: Single path-length method; for mass density: Vibrating tube method

CCCCCCCn1cc[n+](C)c1.[Br-] [1-heptyl-3-methylimidazolium bromide] + O
Settings | mass density, 288.15 K [kg/m3] | mass density, 293.15 K [kg/m3] | mass density, 298.15 K [kg/m3] | mass density, 303.15 K [kg/m3] | mass density, 308.15 K [kg/m3] | speed of sound, 288.15 K [m/s] | speed of sound, 293.15 K [m/s] | speed of sound, 298.15 K [m/s] | speed of sound, 303.15 K [m/s] | speed of sound, 308.15 K [m/s]
m1 = 0.0096 | 999.568 | 998.662 | 997.491 | 996.083 | 994.457 | 1468.2 | 1484.2 | 1498.3 | 1510.5 | 1521.1
m1 = 0.0113 | 999.656 | 998.746 | 997.574 | 996.165 | 994.539 | 1468.5 | 1484.4 | 1498.5 | 1510.8 | 1521.3
m1 = 0.0151 | 999.839 | 998.926 | 997.75 | 996.337 | 994.708 | 1469.1 | 1485 | 1499 | 1511.2 | 1521.7
m1 = 0.0226 | 1000.2 | 999.279 | 998.097 | 996.677 | 995.043 | 1470.4 | 1486.1 | 1500.1 | 1512.2 | 1522.6
m1 = 0.0306 | 1000.59 | 999.656 | 998.464 | 997.04 | 995.398 | 1471.8 | 1487.3 | 1501.2 | 1513.1 | 1523.5
m1 = 0.0384 | 1000.96 | 1000.03 | 998.827 | 997.395 | 995.747 | 1472.9 | 1488.5 | 1502.2 | 1514.1 | 1524.4
m1 = 0.0571 | 1001.85 | 1000.9 | 999.682 | 998.23 | 996.569 | 1476.1 | 1491.2 | 1504.7 | 1516.3 | 1526.4
m1 = 0.0778 | 1002.84 | 1001.86 | 1000.62 | 999.158 | 997.477 | 1479.3 | 1494.3 | 1507.5 | 1518.9 | 1528.6
m1 = 0.097 | 1003.74 | 1002.74 | 1001.49 | 1000.01 | 998.309 | 1482.3 | 1497 | 1509.9 | 1521.1 | 1530.7
m1 = 0.1158 | 1004.62 | 1003.6 | 1002.33 | 1000.83 | 999.119 | 1485.2 | 1499.7 | 1512.3 | 1523.3 | 1532.6
m1 = 0.1383 | 1005.67 | 1004.63 | 1003.34 | 1001.81 | 1000.08 | 1488.7 | 1502.8 | 1515.2 | 1525.8 | 1534.9
m1 = 0.1566 | 1006.51 | 1005.45 | 1004.14 | 1002.6 | 1000.86 | 1491.5 | 1505.3 | 1517.4 | 1527.9 | 1536.7
m1 = 0.174 | 1007.32 | 1006.24 | 1004.91 | 1003.35 | 1001.6 | 1494 | 1507.6 | 1519.5 | 1529.8 | 1538.4
